In assay [1] the target is Mitogen-activated protein kinase 1 (Homo sapiens, UniProt P28482). The assay can be described thus: Inhibition of ERK2 by spectrophotometric coupled-enzyme assay.
Assay [2] concerns the target Mitogen-activated protein kinase 10 (Homo sapiens, UniProt P53779). The assay is described as follows: Inhibition of JNK3 at 10 nM by spectrophotometric coupled-enzyme assay.
Assay [3] concerns the target Mitogen-activated protein kinase 14 (Homo sapiens, UniProt Q16539). The assay is described as follows: Inhibition of p38 alpha kinase.
For assay [4], the target named is Proto-oncogene tyrosine-protein kinase Src (Homo sapiens, UniProt P12931). The assay is described as follows: Inhibition of SRC kinase.
Proto-oncogene tyrosine-protein kinase Src, sequence (P12931 2-536 limits assumed): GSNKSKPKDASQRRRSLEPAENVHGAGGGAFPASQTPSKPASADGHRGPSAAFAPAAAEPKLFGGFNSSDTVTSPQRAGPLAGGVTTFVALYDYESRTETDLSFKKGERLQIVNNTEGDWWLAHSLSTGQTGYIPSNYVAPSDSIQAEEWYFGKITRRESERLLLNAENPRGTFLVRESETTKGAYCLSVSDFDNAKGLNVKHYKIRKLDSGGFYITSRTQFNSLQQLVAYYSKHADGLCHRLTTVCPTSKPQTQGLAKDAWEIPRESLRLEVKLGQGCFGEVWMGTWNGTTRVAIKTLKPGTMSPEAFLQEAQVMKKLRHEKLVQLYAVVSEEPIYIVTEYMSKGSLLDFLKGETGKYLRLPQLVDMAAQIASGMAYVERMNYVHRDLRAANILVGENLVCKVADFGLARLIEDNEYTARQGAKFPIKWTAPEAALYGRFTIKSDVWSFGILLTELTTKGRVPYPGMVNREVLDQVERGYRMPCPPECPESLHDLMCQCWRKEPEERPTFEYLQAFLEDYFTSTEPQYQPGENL
For assay [5], the target named is Dual specificity mitogen-activated protein kinase kinase 1 (Homo sapiens, UniProt Q02750). The assay is described as follows: Inhibition of MEK1.
Dual specificity mitogen-activated protein kinase kinase 1, sequence (Q02750 whole entry): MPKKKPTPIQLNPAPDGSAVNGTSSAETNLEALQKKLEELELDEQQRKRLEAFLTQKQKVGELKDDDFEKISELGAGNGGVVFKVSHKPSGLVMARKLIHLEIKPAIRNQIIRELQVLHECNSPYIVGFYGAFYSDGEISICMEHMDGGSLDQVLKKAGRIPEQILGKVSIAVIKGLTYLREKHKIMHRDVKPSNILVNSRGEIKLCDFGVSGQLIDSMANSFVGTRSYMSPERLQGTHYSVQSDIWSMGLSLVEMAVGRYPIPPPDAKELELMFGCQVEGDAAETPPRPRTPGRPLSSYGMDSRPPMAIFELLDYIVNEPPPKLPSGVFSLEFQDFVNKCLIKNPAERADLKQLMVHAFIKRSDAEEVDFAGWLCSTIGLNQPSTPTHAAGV
The target of assay [6] is Glycogen synthase kinase-3 (Homo sapiens, UniProt P49840+P49841). The assay is described as follows: Inhibition of GSK3. It is filed as protein assay.
The target in assay [7] is T1, Receptor-type tyrosine-protein kinase FLT3 (Homo sapiens, UniProt P36888).
T1 sequence (P36888 whole entry): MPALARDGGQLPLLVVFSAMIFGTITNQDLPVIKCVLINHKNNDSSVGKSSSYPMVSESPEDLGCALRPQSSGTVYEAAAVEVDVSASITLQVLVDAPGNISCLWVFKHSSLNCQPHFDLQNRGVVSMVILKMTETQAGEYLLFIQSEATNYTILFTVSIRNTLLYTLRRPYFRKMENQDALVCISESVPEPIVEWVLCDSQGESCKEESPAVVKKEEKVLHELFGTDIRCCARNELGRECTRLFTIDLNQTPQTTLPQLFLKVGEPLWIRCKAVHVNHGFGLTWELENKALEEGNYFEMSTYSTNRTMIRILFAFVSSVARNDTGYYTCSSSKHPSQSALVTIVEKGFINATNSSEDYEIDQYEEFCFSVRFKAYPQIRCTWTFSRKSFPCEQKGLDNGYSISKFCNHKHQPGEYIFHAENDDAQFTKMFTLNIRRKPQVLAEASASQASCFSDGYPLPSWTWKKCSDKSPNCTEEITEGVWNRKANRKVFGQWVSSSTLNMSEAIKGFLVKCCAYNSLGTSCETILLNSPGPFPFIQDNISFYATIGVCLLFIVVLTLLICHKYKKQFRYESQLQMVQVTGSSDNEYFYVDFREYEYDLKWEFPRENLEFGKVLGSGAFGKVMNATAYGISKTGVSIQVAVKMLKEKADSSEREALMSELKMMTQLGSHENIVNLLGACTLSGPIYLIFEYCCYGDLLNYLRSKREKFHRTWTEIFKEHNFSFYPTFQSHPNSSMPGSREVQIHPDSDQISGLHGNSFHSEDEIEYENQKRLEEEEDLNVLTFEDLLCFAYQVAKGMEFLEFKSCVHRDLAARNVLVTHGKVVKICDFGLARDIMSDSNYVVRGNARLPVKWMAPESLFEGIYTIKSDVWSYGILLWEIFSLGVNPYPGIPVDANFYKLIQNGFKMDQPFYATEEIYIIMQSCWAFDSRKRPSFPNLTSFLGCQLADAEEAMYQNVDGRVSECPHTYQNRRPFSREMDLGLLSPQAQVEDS
The assay can be described thus: Inhibition of FLT3 kinase.

For assay [8], the target named is cAMP-dependent protein kinase (PKA) (Homo sapiens, UniProt P22694+P17612+P22612). The assay is described as follows: Inhibition of PKA. Format: protein assay.
Assay [9] deals with T2, Aurora kinase A (Homo sapiens, UniProt O14965).
T2 sequence (O14965 whole entry): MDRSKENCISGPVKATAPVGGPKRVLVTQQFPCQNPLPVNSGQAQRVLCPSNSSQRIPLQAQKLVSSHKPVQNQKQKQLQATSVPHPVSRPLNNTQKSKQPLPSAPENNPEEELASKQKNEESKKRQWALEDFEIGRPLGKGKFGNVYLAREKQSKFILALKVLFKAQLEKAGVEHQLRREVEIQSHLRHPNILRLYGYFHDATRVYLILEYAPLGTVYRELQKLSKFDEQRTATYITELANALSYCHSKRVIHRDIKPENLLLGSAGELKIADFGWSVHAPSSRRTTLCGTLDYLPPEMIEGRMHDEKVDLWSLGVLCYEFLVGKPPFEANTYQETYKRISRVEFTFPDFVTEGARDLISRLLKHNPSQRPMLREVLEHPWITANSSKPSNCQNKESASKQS
The assay is described as follows: Inhibition of AURA kinase.

The target of assay [10] is Cyclin-dependent kinase 2 (Homo sapiens, UniProt P24941). The assay can be described thus: Inhibition of CDK2.
Assay [11] has as its target RAC-gamma serine/threonine-protein kinase (Homo sapiens, UniProt Q9Y243). The assay can be described thus: Inhibition of AKT3 kinase.
The subject of assay [12] is COLO 205. The assay is described as follows: Antiproliferative activity against Colo205 cells measured by [3H]thymidine incorporation after 48 hrs. Format: functional, cell-based. Conditions: Homo sapiens.
In assay [13] the target is Vascular endothelial growth factor receptor 2 (Homo sapiens, UniProt P35968). The assay is described as follows: Inhibition of KDR kinase.
Vascular endothelial growth factor receptor 2, sequence (P35968 whole entry): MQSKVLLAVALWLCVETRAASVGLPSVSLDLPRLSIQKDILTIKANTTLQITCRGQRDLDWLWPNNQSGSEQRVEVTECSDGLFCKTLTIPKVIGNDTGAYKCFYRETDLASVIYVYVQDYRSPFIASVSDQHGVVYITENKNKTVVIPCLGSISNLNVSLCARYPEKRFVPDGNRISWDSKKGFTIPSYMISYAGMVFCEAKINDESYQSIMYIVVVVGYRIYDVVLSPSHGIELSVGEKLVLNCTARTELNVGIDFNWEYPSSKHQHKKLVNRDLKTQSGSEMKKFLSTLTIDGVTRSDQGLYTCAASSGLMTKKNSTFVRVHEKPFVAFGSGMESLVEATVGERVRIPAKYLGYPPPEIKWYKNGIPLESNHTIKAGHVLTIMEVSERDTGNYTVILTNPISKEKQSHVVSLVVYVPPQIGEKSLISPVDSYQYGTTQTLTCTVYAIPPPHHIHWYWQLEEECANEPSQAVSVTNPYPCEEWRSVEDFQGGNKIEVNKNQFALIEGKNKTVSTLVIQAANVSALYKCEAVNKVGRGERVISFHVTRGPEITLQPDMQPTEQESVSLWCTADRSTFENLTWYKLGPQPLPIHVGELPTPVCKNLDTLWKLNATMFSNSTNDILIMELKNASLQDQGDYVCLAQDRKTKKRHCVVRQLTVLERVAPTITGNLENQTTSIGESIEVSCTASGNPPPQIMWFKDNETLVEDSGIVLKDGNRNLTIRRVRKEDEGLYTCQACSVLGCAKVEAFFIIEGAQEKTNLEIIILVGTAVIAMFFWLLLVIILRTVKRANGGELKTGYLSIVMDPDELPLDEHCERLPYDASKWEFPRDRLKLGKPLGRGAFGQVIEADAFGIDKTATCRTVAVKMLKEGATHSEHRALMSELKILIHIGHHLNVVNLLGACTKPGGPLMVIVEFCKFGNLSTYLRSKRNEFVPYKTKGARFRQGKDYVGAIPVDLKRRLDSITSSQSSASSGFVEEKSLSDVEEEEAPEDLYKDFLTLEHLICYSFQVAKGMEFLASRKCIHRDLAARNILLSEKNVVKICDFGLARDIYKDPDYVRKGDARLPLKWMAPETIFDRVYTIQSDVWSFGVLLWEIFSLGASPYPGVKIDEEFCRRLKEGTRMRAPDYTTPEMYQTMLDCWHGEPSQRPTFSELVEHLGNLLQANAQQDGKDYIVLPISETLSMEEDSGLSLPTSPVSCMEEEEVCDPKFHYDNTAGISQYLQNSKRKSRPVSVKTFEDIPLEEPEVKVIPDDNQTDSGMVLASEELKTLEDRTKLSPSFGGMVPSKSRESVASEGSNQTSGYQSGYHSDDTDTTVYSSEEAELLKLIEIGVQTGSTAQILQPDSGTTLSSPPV

Ki and IC50 data for 28 compounds are collected here from ChEMBL document CHEMBL1142871, “Flipped out: structure-guided design of selective pyrazolylpyrrole ERK inhibitors” (J Med Chem, 2007).

SMILES strings stand for the structures.

Mitogen-activated protein kinase 10, sequence (P53779 whole entry): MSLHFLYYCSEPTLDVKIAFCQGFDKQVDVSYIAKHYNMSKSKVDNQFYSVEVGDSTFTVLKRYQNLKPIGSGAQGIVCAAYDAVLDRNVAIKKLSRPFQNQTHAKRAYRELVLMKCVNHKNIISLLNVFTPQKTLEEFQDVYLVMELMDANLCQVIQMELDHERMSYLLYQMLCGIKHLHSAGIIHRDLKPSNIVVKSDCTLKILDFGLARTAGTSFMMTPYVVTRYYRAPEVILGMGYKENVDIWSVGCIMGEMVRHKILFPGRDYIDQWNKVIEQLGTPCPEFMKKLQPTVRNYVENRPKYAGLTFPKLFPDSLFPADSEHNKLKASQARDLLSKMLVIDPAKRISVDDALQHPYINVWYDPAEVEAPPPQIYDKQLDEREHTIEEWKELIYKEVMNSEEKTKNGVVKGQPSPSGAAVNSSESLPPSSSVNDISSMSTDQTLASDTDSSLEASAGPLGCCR
Mitogen-activated protein kinase 1, sequence (P28482 whole entry): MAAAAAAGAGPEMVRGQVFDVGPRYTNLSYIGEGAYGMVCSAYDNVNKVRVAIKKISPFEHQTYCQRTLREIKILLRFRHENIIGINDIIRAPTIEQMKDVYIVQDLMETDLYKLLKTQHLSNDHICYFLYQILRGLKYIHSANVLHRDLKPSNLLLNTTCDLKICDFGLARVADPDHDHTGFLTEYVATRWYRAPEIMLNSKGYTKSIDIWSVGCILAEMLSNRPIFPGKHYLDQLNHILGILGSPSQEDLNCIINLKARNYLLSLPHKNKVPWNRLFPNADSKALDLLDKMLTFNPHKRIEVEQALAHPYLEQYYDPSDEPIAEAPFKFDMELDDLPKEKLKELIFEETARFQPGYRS
RAC-gamma serine/threonine-protein kinase, sequence (Q9Y243 whole entry): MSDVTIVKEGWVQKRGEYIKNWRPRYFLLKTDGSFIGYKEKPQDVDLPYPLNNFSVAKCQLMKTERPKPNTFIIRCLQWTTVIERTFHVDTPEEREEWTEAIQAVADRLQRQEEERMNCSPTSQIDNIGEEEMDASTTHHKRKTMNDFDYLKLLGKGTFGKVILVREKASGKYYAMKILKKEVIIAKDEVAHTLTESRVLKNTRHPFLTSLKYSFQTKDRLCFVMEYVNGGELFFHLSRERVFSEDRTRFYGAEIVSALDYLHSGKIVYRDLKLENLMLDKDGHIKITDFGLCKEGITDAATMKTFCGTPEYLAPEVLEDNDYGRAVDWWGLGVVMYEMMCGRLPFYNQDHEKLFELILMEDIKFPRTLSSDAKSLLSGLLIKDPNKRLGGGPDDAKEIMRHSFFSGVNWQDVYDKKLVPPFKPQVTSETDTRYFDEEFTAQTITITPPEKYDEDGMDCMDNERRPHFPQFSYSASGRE
Mitogen-activated protein kinase 14, sequence (Q16539 whole entry): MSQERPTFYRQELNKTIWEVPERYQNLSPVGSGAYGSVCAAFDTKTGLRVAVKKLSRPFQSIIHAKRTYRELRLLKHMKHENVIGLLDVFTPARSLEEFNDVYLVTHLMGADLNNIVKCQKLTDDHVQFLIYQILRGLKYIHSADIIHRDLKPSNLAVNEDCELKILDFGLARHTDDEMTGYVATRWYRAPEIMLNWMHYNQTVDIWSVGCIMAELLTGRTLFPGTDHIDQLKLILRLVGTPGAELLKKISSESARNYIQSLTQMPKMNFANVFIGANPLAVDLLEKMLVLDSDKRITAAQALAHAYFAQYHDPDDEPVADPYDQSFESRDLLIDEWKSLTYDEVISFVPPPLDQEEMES

As to `O=C(N[C@H](C(=O)O)c1ccccc1)c1cc(-c2n[nH]cc2-c2cccc(Cl)c2)c[nH]1`, the figures for the inhibitory constant (Ki) in assay [1] and in assay [2] were greater than 5 µM and greater than 4 µM, respectively.
On to `O=C(NCC1CCCO1)c1cc(-c2[nH]ncc2-c2cccc(Cl)c2)c[nH]1` (stereo not given), for which, in assay [2], the Ki was 2.7 µM.
Consider `O=C(NC(CO)c1ccc(F)c(F)c1)c1cc(-c2n[nH]cc2-c2cccc(Cl)c2)c[nH]1` (stereo not given), for which the inhibition constant Ki in [1] was 0.022 µM; in assay [2], 2.8 µM.
For `CN(C)C(=O)c1cc(-c2n[nH]cc2-c2ccccc2)c[nH]1`, the Ki in assay [2] was greater than 4 µM.
As for `O=C(NC(CO)c1cccc(F)c1)c1cc(-c2[nH]ncc2-c2cccc(Cl)c2)c[nH]1` (stereo not given), the inhibition constant (Ki) in [1] amounted to 0.024 µM; in [2], 3 µM.
For `O=C(NC(CO)c1ccccc1F)c1cc(-c2[nH]ncc2-c2cccc(Cl)c2)c[nH]1` (stereo not given), in that order: 0.24 µM and 3.1 µM.
The compound `O=C(NC(CO)c1ccc(F)c(Cl)c1)c1cc(-c2[nH]ncc2-c2cccc(Cl)c2)c[nH]1` (stereo not given) returned a Ki in [1] of 0.006 µM.
As to `CNC(=O)[C@@H](NC(=O)c1cc(-c2[nH]ncc2-c2cccc(Cl)c2)c[nH]1)c1ccccc1`, the inhibitory constant (Ki) in assay [1] came out at 2.3 µM; in assay [2], 3.9 µM.
Consider `O=C(c1cc(-c2[nH]ncc2-c2cccc(Cl)c2)c[nH]1)N1CCCC1`, for which the results for the Ki in assay [1] and in [2] were 0.2 µM and 1.8 µM, respectively.
Consider `O=C(N[C@H](CO)c1ccccc1)c1cc(-c2[nH]ncc2-c2cccc(Cl)c2)c[nH]1`, for which, in assay [2], the Ki worked out at 2.8 µM.
With `O=C(NC1c2ccccc2CC1O)c1cc(-c2[nH]ncc2-c2cccc(Cl)c2)c[nH]1` (stereo not given), the Ki in [1] turned out to be 4 µM; in [2], 3.2 µM.
In turn, `O=C(NOCc1ccccc1)c1cc(-c2[nH]ncc2-c2cccc(Cl)c2)c[nH]1` came in with a Ki in assay [2] of 2.9 µM.
As for `O=C(N[C@@H](CO)c1ccc(F)c(Cl)c1)c1cc(-c2n[nH]cc2-c2cccc(Cl)c2)c[nH]1`, the Ki in [1] was 0.15 µM; in assay [2] it was greater than 4 µM.
In the case of `NC(=O)[C@@H](NC(=O)c1cc(-c2[nH]ncc2-c2cccc(Cl)c2)c[nH]1)c1ccccc1`, the inhibition constant Ki in [1] came to 0.51 µM; in assay [2], 3.3 µM.
On to `O=C(NC(CO)c1cc(Cl)cc(Cl)c1)c1cc(-c2n[nH]cc2-c2cccc(Cl)c2)c[nH]1` (stereo not given), for which the inhibition constant (Ki) in assay [1] was 0.007 µM; in assay [2] it was 3.4 µM.
For `C[C@H](NC(=O)c1cc(-c2n[nH]cc2-c2cccc(Cl)c2)c[nH]1)c1ccccc1`, in that order: 0.66 µM and greater than 4 µM.
For `O=C(NCc1ccc(F)c(F)c1)c1cc(-c2n[nH]cc2-c2cccc(Cl)c2)c[nH]1`, in that order: 0.04 µM and 0.79 µM.
For `O=C(NC(CO)c1ccc(C(F)(F)F)cc1)c1cc(-c2n[nH]cc2-c2cccc(Cl)c2)c[nH]1` (stereo not given), in that order: 0.044 µM and 2.7 µM.
Consider `COc1ccc(CNC(=O)c2cc(-c3n[nH]cc3-c3cccc(Cl)c3)c[nH]2)cc1`, for which the Ki in assay [1] was 0.49 µM; in [2], 0.84 µM.
For `O=C(NCCc1cccnc1)c1cc(-c2[nH]ncc2-c2cccc(Cl)c2)c[nH]1`, in that order: 0.33 µM and greater than 4 µM.
Turning to `C[C@@H](NC(=O)c1cc(-c2n[nH]cc2-c2cccc(Cl)c2)c[nH]1)c1ccccc1`, the Ki was 0.1 µM in assay [1] and 3.1 µM in assay [2].
For `CCN1CCCC1CNC(=O)c1cc(-c2n[nH]cc2-c2cccc(Cl)c2)c[nH]1` (stereo not given), in that order: greater than 10 µM and greater than 4 µM.
For `CN(Cc1ccccc1)C(=O)c1cc(-c2[nH]ncc2-c2cccc(Cl)c2)c[nH]1`, in that order: 0.44 µM and greater than 4 µM.
As to `O=C(NC(CO)c1ccc(F)cc1)c1cc(-c2n[nH]cc2-c2cccc(Cl)c2)c[nH]1` (stereo not given), the Ki was 0.063 µM in [1] and greater than 4 µM in assay [2].
In turn, `CCN(C)C(=O)c1cc(-c2n[nH]cc2-c2cccc(Cl)c2)c[nH]1` displayed a Ki in assay [2] greater than 4 µM.
For `O=C(NC(CO)c1ccc(Cl)cc1)c1cc(-c2n[nH]cc2-c2cccc(Cl)c2)c[nH]1` (stereo not given), the Ki came out at 0.014 µM in assay [1] and 2.5 µM in assay [2].
For `O=C(c1cc(-c2[nH]ncc2-c2cccc(Cl)c2)c[nH]1)N1CCc2ccccc2C1`, in that order: 0.51 µM and greater than 4 µM.
Consider `O=C(N[C@H](CO)c1ccc(F)c(Cl)c1)c1cc(-c2n[nH]cc2-c2cccc(Cl)c2)c[nH]1`, for which the Ki in assay [3] is greater than 4 µM; in assay [4], 1.1 µM; in assay [5] it was greater than 4 µM; in assay [6], 3.3 µM; in [7] it was 0.75 µM; in [8], 0.39 µM. Moreover, the Ki in assay [9] was greater than 4 µM; in assay [10], greater than 4 µM; in [11], 1.8 µM; in [13], 3.9 µM; in [2] it was greater than 4 µM. The same compound showed an IC50 in assay [12] of 0.54 µM.

The Ki is the equilibrium dissociation constant of an inhibitor or competing ligand from its target. High values mean a looser hold on the target, low ones a stronger hold on the target. One may read the IC50 as the concentration that gives 50% inhibition.
